# Assay results from patent US20150119247A1, “Composition and Method for Stress Mitigation in Plants” (Stoller Enterprises, Inc., priority 2011, published 2015).
# Columns and labels:
# Assay type in all cases: in vivo
# Arabidopsis thaliana = test: High temperature seed/silique development, first experiment (FIG. 1)
# Source text: These experiments employed the model crop plant, Arabidopsis thaliana, whose genome was mapped as early as the year 2000. To ensure uniformity, the tested plants were selected such that they were in the beginning stages of flowering and had balanced numbers of flowers across groups. The control agent as well as all tested agents were applied in a water solution containing 0.01% Silwet® super spreader (obtained from General Electric) to the leaves and flowers (i.e., foliage) of the tested plants. […] The third and fourth agents tested consisted of 6-benzyl adenine (6-BA) and kinetin (KIN)—both cytokinins—each applied at the rate of 100 μg/1 (0.1 ppm). […] Aqueous solutions of the tested agents prepared to the stated concentrations/doses were sprayed onto test groups of flowers and leaves (i.e., foliage) of Arabidopsis thaliana until runoff at one day prior to heat exposure and again at four days after the beginning of heat exposure. The total duration of heat exposure was fourteen (14) days. […] The seed pods (i.e. siliques), filled with developed seeds (siliques >7 mm long and/or >1 mm wide and/or bearing seeds), were counted just prior to the beginning of the experiment, and again after fourteen (14) days of heat exposure treatments.
# field-grown corn crops = test: Field-grown corn treated before the reproductive stage, Weslaco, Tex.: yield and seed size
# Source text: In this example, the effect of the plant growth regulator cytokinin, specifically kinetin, and applied at various times before the reproductive stages of growth, was observed. In Table 2, V7, V10, V13, and V16 refer to stages of growth of the corn plant. V7 refers to the growth stage where the collar of the seventh leaf is visible, V10 refers to the growth stage where the collar of the tenth leaf is visible, V13 refers to the growth stage where the collar of the thirteenth leaf is visible, and V16 refers to the growth stage where the collar of the sixteenth leaf is visible. V16 is also just prior to the reproductive stage of growth. The corn crops were grown in Weslaco, Tex. The water levels were either none (i.e., simply rain referred to as dryland), or drip through a “drip tape” (i.e., drip irrigation whereby sufficient water was applied for more optimal growth of the crop). Results are given for yield (measured in bushels per acre), and the weight of the seed (measured in grams per 1,000 kernels). T tests indicate whether there were differences.
# [1] = system: field-grown beans (i.e., lima beans); test: Lima bean field yield, Gustine, CA, 2010; settings: aqueous kinetin solution applied to foliage just prior to flowering at one pint per acre or two pints per acre; up to approx. 35 degrees Celsius
# Procedure: In this example, the effect of the plant growth regulator cytokinin, specifically kinetin, applied at the beginning of flowering and two to four weeks thereafter to field-grown beans (i.e., lima beans) in Gustine, Calif. was observed. Growing temperatures up to approximately 35 degrees Celsius were recorded. […] The difference of “t” test of 5% is significant.
# field corn = test: Field corn yield trials, Ohio, cytokinin with low potassium; settings: potassium ½ lb. to 1 lb. per acre with cytokinin (X-Cyte) 1 pint per acre; unreplicated field trials over three years
# Source text: In this example, the effect of the plant growth regulator/hormone, cytokinin, applied together with low concentrations of potassium, was observed. The cytokinin that was field-applied was X-Cyte, as previously disclosed. In these unreplicated field trials, conducted in Ohio over a three year period, potassium at ½ lb. to 1 lb. per acre and cytokinin at 1 pint per acre were applied to field corn. The average increase in yield attained by applying potassium, in addition to cytokinin, was approximately fifteen (15) bushels per acre.
# [2] = EXPT 1, stage V10, variety B25DC25 R80, drip
# [3] = EXPT 1, stage V16, variety B25DC25 R80, drip
# [4] = EXPT 2, stage V10, variety Asgrow 7573, dry land
# [5] = EXPT 3, stage V7, variety H2684162, dry land
# [6] = EXPT 3, stage V10, variety H2684162, dry land
# [7] = EXPT 3, stage V13, variety H2684162, dry land
# [8] = EXPT 3, stage V16, variety H2684162, dry land
smiles,measurement,setting,value
c1coc(CNc2ncnc3[nH]cnc23)c1 [kinetin],"number of seeds (i.e., siliques)","Arabidopsis thaliana; 100 μg/l (0.1 ppm) sprayed on foliage 1 day before and 4 days after start of heat, 14 days at 33-36 degrees Celsius days",increased number of seeds
same,"1,000 Kernel wt g",field-grown corn crops; [2],298 g
same,Yield Bu/acre,field-grown corn crops; [2],259 Bu/acre
same,"1,000 Kernel wt g",field-grown corn crops; [3],298 g
same,Yield Bu/acre,field-grown corn crops; [3],311 Bu/acre
same,"1,000 Kernel wt g",field-grown corn crops; [4],244 g
same,Yield Bu/acre,field-grown corn crops; [4],149 Bu/acre
same,"1,000 Kernel wt g",field-grown corn crops; [5],295 g
same,Yield Bu/acre,field-grown corn crops; [5],212 Bu/acre
same,"1,000 Kernel wt g",field-grown corn crops; [6],296 g
same,Yield Bu/acre,field-grown corn crops; [6],211 Bu/acre
same,"1,000 Kernel wt g",field-grown corn crops; [7],299 g
same,Yield Bu/acre,field-grown corn crops; [7],208 Bu/acre
same,"1,000 Kernel wt g",field-grown corn crops; [8],296 g
same,Yield Bu/acre,field-grown corn crops; [8],207 Bu/acre
same,yield versus untreated control,"field-grown corn crops; all treatments (stages V7 to V16, drip and dryland)",enhanced yield in a highly significant fashion
same,seed size versus untreated control,field-grown corn crops; dryland conditions (no added water or irrigation),increased seed size in a highly significant fashion
same,lima bean yields,[1],increased significantly
[K+] [potassium],average increase in yield by applying potassium in addition to cytokinin,field corn,~15 bushels per acre
OC[C@H]1O[C@@](CO)(O[C@H]2O[C@H](CO)[C@@H](O)[C@H](O)[C@H]2O)[C@@H](O)[C@@H]1O [sucrose],sugar/photosynthate deficiency (plant autophagy),"Arabidopsis thaliana; sucrose solutions of 20 mM and 100 mM sprayed on foliage, 14 days heat exposure",alleviated the sugar/photosynthate deficiency
